# Assay results as given in US20210015134A1, “CONSUMABLES” (Givaudan S.A., priority 2006, published 2021).
# Tests used:
# Type in all cases: in vivo
# [1] = tested on: sweet sensitive panelists; experiment: Comparative sensory evaluation of sweetness enhancers in sweetener solution or water (Example 1)
# Method: Comparative sensory evaluation of sweetness enhancers in 2 or 7% sucrose
# The test samples contained the potential sweetness enhancers in 0% sucrose (water), 2% sucrose, or 7% sucrose, and control samples of 0%, 2% and 7% sucrose without any additive. The sensory evaluations were conducted as follows. All samples were presented at ambient temperature in 15 ml aliquots to panels consisting of 5-9 sweet sensitive subjects of varying sweet sensitivity. After tasting each sample, the mouth was rinsed thoroughly with water at ambient temperature prior to tasting the next sample. The sucrose positive control (2% or 7%) was presented first and served as the sweetness reference to which all sweetness enhancer/sucrose combinations were directly compared.
# One tasting sequence included tasting the sucrose control first, rinsing with water, tasting the sweetness enhancer/sucrose sample, rinsing with water followed by tasting the sucrose control again. Once the sequence was completed, each panelist chose the sample which was sweeter and evaluated the sweetness of each sample relative to one another.
# In a second tasting sequence, this same procedure was followed for the water negative control versus the sweetness enhancer/water samples to determine the sweet taste due to the sweetness enhancer itself at each tested concentration.
# Panelists evaluated the sweetness of the sweetness enhancer in water for each concentration. For their evaluation, panelists were allowed to compare any perceived sweetness of the sweetness enhancer to the 2% or 7% sucrose control to determine the relative intensity of sweetness. Mild sweet taste corresponds to the taste of 2% sucrose, strong sweet taste corresponds to the taste of 7% sucrose.
# Alternatively to sucrose, the evaluation may be performed with another sweetener, for example, high fructose (55%) corn syrup (HFCS, containing 55% fructose and 45% glucose), erythritol, sucralose, aspartame, or acesulfame potassium (AceK).
# [2] = tested on: sweet sensitive panelists; experiment: Ranking test, sweetness isointensity of enhancer in sweetener solution (Example 3a)
# Method: Ranking Tests to Determine the Sweetness Isointensity of Sweetness Enhancers to Sucrose Solutions
# For comparative ranking, samples of 0.5%, 1%, 1.5%, 7%, 8%, 9%, 10% and 11% sucrose solutions were prepared.
# 3a) Sweetness Isointensity of Sweetness Enhancer in Sucrose Solutions
# The sensory evaluation was conducted using a ranking method. Samples at ambient temperature were randomly presented in 15 ml blind aliquots (unidentifiable by panelists). Panels consisted of 10 sweet sensitive subjects and samples were presented in 4 replications over 2 sessions. After tasting each sample, the mouth was rinsed thoroughly with water at ambient temperature prior to tasting the next sample. Panelists were presented with 7%, 8%, 9%, 10%, 11% sucrose samples and a sixth sample of 7% sucrose with a sweetness enhancer in a concentration near its sweetness detection threshold. They were asked to rank the samples from low to high with respect to perceived sweet taste. R-indices were calculated for 7% sucrose with the sweetness enhancer versus 7%, 8%, 9%, 10% or 11% sucrose.
# [3] = tested on: sweet sensitive panelists; experiment: Ranking test, near threshold sweetness isointensity of enhancer in water (Example 3b)
# Method: The sensory evaluation was conducted using a ranking method. Samples at ambient temperature were randomly presented in 15 ml blind aliquots (unidentifiable by panelists). […] After tasting each sample, the mouth was rinsed thoroughly with water at ambient temperature prior to tasting the next sample. […] They were asked to rank the samples from low to high with respect to perceived sweet taste.
# [4] = tested on: sweet sensitive panelists; experiment: Paired comparison of sweetness enhancers in water versus sucrose (Example 4, modified)
# Method: Paired Comparisons of Sweetness Enhancers and Mixtures Thereof in Water and 7% Sucrose
# Samples of sweetness enhancers were prepared in water or 7% sucrose. One, two or three sweetness enhancers were used in a sample. All samples were presented to panelists at ambient temperature. The sensory evaluation was conducted using a paired comparison method. […] Samples were paired randomly and presented in unidentifiable pairs of two (left and right) to the panelists in random order. The sample on the left was tasted first, followed by rinsing the mouth with water, then tasting the sample on the right. Once completing the sequence, each panelist ranked the pair of samples for sweetness then evaluated samples with respect to one another with the following descriptors (in ascending order): […]
# sweet sensitive subjects = experiment: Sweetness quality evaluation (time of onset, localization, duration)
# Method: (§1) Rebaudioside A (99%+, purified from plant extract, Sweet Aloha Farms, LLC) (1 ppm, 10 ppm, 20 ppm, 30 ppm) in 2% sucrose samples was evaluated for the qualities of the sweetness of the samples (time of onset, localization, duration). The sensory evaluations were conducted as follows. All samples were presented at ambient temperature in 15 ml aliquots and presented blindly to sweet sensitive subjects of varying sweet sensitivity. Subjects tasted the samples and were asked to evaluate the quality of sweetness. Sucrose solutions (2% and 7%) were presented as references.
# Rebaudioside A (99%+, purified from plant extract, Sweet Aloha Farms, LLC) (1 ppm, 10 ppm, 20 ppm, 30 ppm) in 7% sucrose samples were evaluated for the qualities of the sweetness of the samples (time of onset, localization, duration). The sensory evaluations were conducted as follows. All samples were presented at ambient temperature in 15 ml aliquots and presented blindly to sweet sensitive subjects of varying sweet sensitivity. Subjects tasted the samples and were asked to evaluate the quality of the sweetness. Sucrose solutions (2% and 7%) were presented as references to evaluate the sweetness of the rebaudioside A samples.
# as §1, with “Stevioside extract (95%+,” for “Rebaudioside A (99%+,”, “Apin Chemicals) (20” for “Sweet Aloha Farms, LLC) (1 ppm, 10 ppm, 20”, “30 ppm, 40 ppm, 50” for “30”, “ppm) was evaluated” for “ppm)”, “sucrose” for “sucrose samples was evaluated”, “sweetness qualities.” for “quality of sweetness.”
# Stevioside (20 ppm, 30 ppm, 40 ppm, 50 ppm) was evaluated in 7% sucrose for the qualities of the sweetness of the samples (time of onset, localization, duration). The sensory evaluations were conducted as follows. All samples were presented at ambient temperature in 15 ml aliquots and presented blindly to sweet sensitive subjects of varying sweet sensitivity. Subjects tasted the samples and were asked to evaluate the sweetness qualities. Sucrose solutions (2% and 7%) were presented as references to evaluate the sweetness of the stevioside samples.
# [5] = 45 ppm in water vs 0.5% sucrose
# [6] = 60 ppm in water vs 1.5% sucrose
# [7] = 50 ppm in water vs 0.5% sucrose
smiles,measurement,setting,value
"C[C@@H]1O[C@@H](OC2C(Oc3cc(O)c(C(=O)CCc4ccc(O)cc4)c(O)c3)OC(CO)C(O)C2O)[C@H](O)[C@H](O)[C@H]1O (stereo in doubt) [NarDHC, -[4-[[2-O-(6-Deoxy-L-mannopyranosyl)-D-glucopyranosyl]oxy]-2,6-dihydroxyphenyl]-3-(4-hydroxyphenyl)-1-propanone]",Sensory evaluation of sweetness intensity,[1]; 20 ppm in 2% sucrose,notably sweeter than sucrose control
same,Sensory evaluation of sweetness intensity,[1]; 20 ppm in water,barely perceived delayed sweetness vs. 2% sucrose
same,Sensory evaluation of sweetness intensity,[1]; 60 ppm in 2% sucrose,much sweeter than sucrose control
same,Sensory evaluation of sweetness intensity,[1]; 60 ppm in water,very weak delayed sweetness far below 2% sucrose
same,Sensory evaluation of sweetness intensity,[1]; 100 ppm in 2% sucrose,substantially sweeter than 2% sucrose control
same,Sensory evaluation of sweetness intensity,[1]; 100 ppm in water,mild sweetness slightly below 2% sucrose control
same,added sucrose sweetness intensity,[2]; 45 ppm in 7% sucrose,1 ° Brix
same,sweetness isointensity to sucrose,[2]; 45 ppm in 7% sucrose,8 % sucrose
same,NarDHC sample sweetness,[2]; 45 ppm in 7% sucrose vs 7% sucrose,sweeter
same,NarDHC sample sweetness,[2]; 45 ppm in 7% sucrose vs 8% sucrose,isosweet
same,NarDHC sample sweetness,[2]; 45 ppm in 7% sucrose vs 9% sucrose,less sweet
same,NarDHC sample sweetness,[2]; 45 ppm in 7% sucrose vs 10% sucrose,less sweet
same,NarDHC sample sweetness,[2]; 45 ppm in 7% sucrose vs 11% sucrose,less sweet
same,added sucrose sweetness intensity,[2]; 60 ppm in 7% sucrose,2 ° Brix
same,sweetness isointensity to sucrose,[2]; 60 ppm in 7% sucrose,9 % sucrose
same,NarDHC sample sweetness,[2]; 60 ppm in 7% sucrose vs 7% sucrose,Sweeter
same,NarDHC sample sweetness,[2]; 60 ppm in 7% sucrose vs 8% sucrose,Sweeter
same,NarDHC sample sweetness,[2]; 60 ppm in 7% sucrose vs 9% sucrose,Isosweet
same,NarDHC sample sweetness,[2]; 60 ppm in 7% sucrose vs 10% sucrose,less sweet
same,NarDHC sample sweetness,[2]; 60 ppm in 7% sucrose vs 11% sucrose,less sweet
same,isointensity to sucrose solution,[3]; 45 ppm in water,0.5 % sucrose
same,"sample sweetness (NarDHC, 45 ppm)",[3]; [5],Isosweet
same,"sample sweetness (NarDHC, 45 ppm)",[3]; 45 ppm in water vs 1% sucrose,less sweet
same,"sample sweetness (NarDHC, 60 ppm)",[3]; 60 ppm in water vs 0.5% sucrose,sweeter
same,"sample sweetness (NarDHC, 60 ppm)",[3]; 60 ppm in water vs 1% sucrose,sweeter
same,"sample sweetness (NarDHC, 60 ppm)",[3]; [6],less sweet
same,Result of comparison,[4]; 45 ppm in water vs 0% sucrose,weakly sweeter
same,Result of comparison,[4]; [5],isosweet
same,Result of comparison,[4]; 45 ppm in water vs 1% sucrose,less sweet
same,Result of comparison,[4]; [7],notably sweeter
same,Result of comparison,[4]; 50 ppm in water vs 1% sucrose,less sweet
same,isointensity to sucrose solution,[4]; 55 ppm in water,1 % sucrose
same,Result of comparison,[4]; 55 ppm in water vs 0.5% sucrose,notably sweeter
same,Result of comparison,[4]; 55 ppm in water vs 1% sucrose,isosweet
same,Result of comparison,[4]; 60 ppm in water vs 1% sucrose,notably sweeter
same,Result of comparison,[4]; [6],significantly less sweet
C=C1C[C@@]23CC[C@H]4[C@@](C)(CCC[C@@]4(C)C(=O)O[C@@H]4O[C@H](CO)[C@@H](O)[C@H](O)[C@H]4O)[C@@H]2CC[C@]1(O[C@@H]1O[C@H](CO)[C@@H](O)[C@H](O)[C@H]1O[C@@H]1O[C@H](CO)[C@@H](O)[C@H](O)[C@H]1O)C3 [Stevioside],Sensory evaluation of sweetness intensity,[1]; 20 ppm in 2% sucrose,notably sweeter than sucrose control
same,Sensory evaluation of sweetness intensity,[1]; 20 ppm in 7% sucrose,notably sweeter than sucrose control
same,Sensory evaluation of sweetness intensity,[1]; 20 ppm in water (Example 9A),barely detectable sweetness
same,Sensory evaluation of sweetness intensity,[1]; 20 ppm in water (Example 9B),barely detectable sweetness
same,Sensory evaluation of sweetness intensity,[1]; 30 ppm in 2% sucrose,much sweeter than sucrose control
same,Sensory evaluation of sweetness intensity,[1]; 30 ppm in 7% sucrose,notably sweeter than sucrose control
same,Sensory evaluation of sweetness intensity,[1]; 30 ppm in water (Example 9A),"very weak, late onsetting sweetness"
same,Sensory evaluation of sweetness intensity,[1]; 30 ppm in water (Example 9B),"very weak, late onsetting sweetness"
same,Sensory evaluation of sweetness intensity,[1]; 40 ppm in 2% sucrose,much sweeter than sucrose control
same,Sensory evaluation of sweetness intensity,[1]; 40 ppm in 7% sucrose,much sweeter than sucrose control
same,Sensory evaluation of sweetness intensity,[1]; 40 ppm in water (Example 9A),weak late onsetting sweetness
same,Sensory evaluation of sweetness intensity,[1]; 40 ppm in water (Example 9B),"weak sweetness, late onsetting sweetness"
same,Sensory evaluation of sweetness intensity,[1]; 50 ppm in 2% sucrose,much sweeter than sucrose control
same,Sensory evaluation of sweetness intensity,[1]; 50 ppm in 7% sucrose,much sweeter than sucrose control
same,Sensory evaluation of sweetness intensity,[1]; 50 ppm in water (Example 9A),"weak sweetness, faster onset than 40 ppm,"
same,Sensory evaluation of sweetness intensity,[1]; 50 ppm in water (Example 9B),"weak sweetness, faster onset than 40 ppm,"
same,Sensory evaluation of sweetness intensity,[1]; 60 ppm in 2% sucrose,substantially sweeter than sucrose control
same,Sensory evaluation of sweetness intensity,[1]; 60 ppm in 7% sucrose,substantially sweeter than sucrose control
same,Sensory evaluation of sweetness intensity,[1]; 60 ppm in water (Example 9A),"weak sweetness, faster onset than 50 ppm,"
same,Sensory evaluation of sweetness intensity,[1]; 60 ppm in water (Example 9B),"weak sweetness, faster onset than 50 ppm,"
same,Result of comparison,[4]; 20 ppm in water vs 0% sucrose,weakly sweeter
same,Result of comparison,[4]; 20 ppm in water vs 0.5% sucrose,notably less sweet
same,isointensity to sucrose solution,[4]; 30 ppm in water,0.5 % sucrose
same,Result of comparison,[4]; 30 ppm in water vs 0% sucrose,weakly sweeter
same,Result of comparison,[4]; 30 ppm in water vs 0.5% sucrose,isosweet
same,Result of comparison,[4]; 30 ppm in water vs 1% sucrose,significantly less sweet
same,Result of comparison,[4]; 40 ppm in water vs 0.5% sucrose,notably sweeter
same,Result of comparison,[4]; 40 ppm in water vs 1% sucrose,less sweet
same,isointensity to sucrose solution,"[4]; 40 ppm in water, by interpolation",0.75 % sucrose
same,isointensity to sucrose solution,[4]; 50 ppm in water,1 % sucrose
same,Result of comparison,[4]; [7],sweeter
same,Result of comparison,[4]; 50 ppm in water vs 1% sucrose,isosweet
same,Result of comparison,[4]; 50 ppm in water vs 1.5% sucrose,significantly less sweet
same,Result of comparison,[4]; 60 ppm in water vs 1% sucrose,notably sweeter
same,Result of comparison,[4]; [6],less sweet
same,isointensity to sucrose solution,"[4]; 60 ppm in water, by interpolation",1.25 % sucrose
same,"Sensory evaluation of sweetness intensity (onset, localisation, duration)",sweet sensitive subjects; 20 ppm in 2% sucrose,"immediate onset, full mouth sweet, not lingering"
same,"Sensory evaluation of sweetness intensity (onset, localisation, duration)",sweet sensitive subjects; 20 ppm in 7% sucrose,"immediate onset, full mouth sweet, not lingering"
same,"Sensory evaluation of sweetness intensity (onset, localisation, duration)",sweet sensitive subjects; 30 ppm in 2% sucrose,"immediate onset, full mouth sweet, not lingering"
same,"Sensory evaluation of sweetness intensity (onset, localisation, duration)",sweet sensitive subjects; 30 ppm in 7% sucrose,"immediate onset, full mouth sweet, not lingering"
same,"Sensory evaluation of sweetness intensity (onset, localisation, duration)",sweet sensitive subjects; 40 ppm in 2% sucrose,"immediate onset, full mouth sweet, not lingering"
same,"Sensory evaluation of sweetness intensity (onset, localisation, duration)",sweet sensitive subjects; 40 ppm in 7% sucrose,"immediate onset, full mouth sweet, not lingering"
